Key:
VCAM-1 = assay: In Vitro VCAM-1 Assay (ELISA of VCAM-1 on TNF-α stimulated endothelial cells); type: cell-based; conditions: Endothelial cell; primary human aortic (HAEC) or pulmonary (HPAEC) endothelial cells, TNF-α (1 ng/ml), approximately 16 hours
Protocol: Cell Culture and compound dosing: Cultured primary human aortic (HAEC) or pulmonary (HPAEC) endothelial cells were obtained from Clonetics, Inc., and were used below passage 9. Cells were seeded in 96 well plates such that they would reach 90-95% confluency by the following day. On the following day the cells were stimulated with TNF-α (1 ng/ml) in the presence or absence of compounds dissolved in DMSO such that the final concentration of DMSO is 0.25% or less. To establish a dose curve for each compound, four concentrations in 2- to 5-fold increments were used. Cells were exposed to TNF-α and compounds for approximately 16 hours. The next day the cells were examined under microscope to score for visual signs of toxicity or cell stress.
Following 16 hr exposure to TNF-α and compound the media was discarded and the cells were washed once with Hanks Balanced Salt Solution (HBSS)/Phosphate buffered saline (PBS) (1:1). Primary antibodies against VCAM-1 (0.25 μg/ml in HBSS/PBS+5% FBS) were added and incubated for 30-60 minutes at 37° C. Cells were washed with HBSS/PBS three times, and secondary antibody Horse Radish Peroxidase (HRP)-conjugated goat anti-mouse IgG (1:500 in HBSS/PBS+5% FBS) were added and incubated for 30 minutes at 37° C. Cells were washed with HBSS/PBS four time and TMB substrate were added and incubated at room temperature in the dark until there was adequate development of blue color. The length of time of incubation was typically 5-15 minutes. 2N sulfuric acid was added to stop the color development and the data was collected by reading the absorbance on a BioRad ELISA plate reader at OD 450 nm. The results are expressed as IC50 values (the concentration (micromolar) of compound required to inhibit 50% of the maximal response of the control sample stimulated by TNF-α only).

IC50 (VCAM-1)	melting point	Compound
< 1000 nM	234 °C (dec.)	C=C(C(=O)c1ccc(Nc2ncccc2C(=O)O)cc1)c1cc(-c2cccs2)ccc1OC [Example 24, 2-{4-[2-(2-Methoxy-5-thien-2-yl-phenyl)-acryloyl]-phenylamino}-nicotinic acid]
< 3000 nM	204 to 205 °C	C=C(C(=O)c1ccc(OC)c(-c2cccs2)c1)c1ccc(C(=O)O)cc1 [Example 15, 4-[1-(4-Methoxy-3-thien-2-yl-benzoyl)-vinyl]-benzoic acid]
< 3000 nM	138 °C (dec.)	C=C(C(=O)c1c(OC)ccc(-c2cccs2)c1OC)c1ccc(OC(C)(C)C(=O)O)cc1 [Example 35, 2-{4-[1-(2,6-Dimethoxy-3-thien-2-yl-benzoyl)-vinyl]-phenoxy}-2-methyl-propionic acid]
< 1000 nM	178 to 182 °C	C=C(C(=O)c1ccc(Nc2cnccn2)cc1)c1cc(-c2cccs2)ccc1OC [Example 25, 2-(2-Methoxy-5-thien-2-yl-phenyl)-1-[4-(pyrazin-2-ylamino)-phenyl]-propenone]
< 1000 nM	197 to 199 °C	C=C(C(=O)c1ccc(C(=O)N2CCC(O)CC2)cc1)c1cc(-c2cccs2)ccc1OC [Example 11, 1-[4-(4-Hydroxy-piperidine-1-carbonyl)-phenyl]-2-(2-methoxy-5-thien-2-yl-phenyl)-propenone]
< 3000 nM	160 to 162 °C	C=C(C(=O)c1ccc([N+](=O)[O-])cc1)c1cc(-c2cccs2)ccc1OC [Example 18, 2-(2-Methoxy-5-thien-2-yl-phenyl)-1-(4-nitro-phenyl)-propenone]
< 3000 nM	84 to 87 °C	C=C(C(=O)c1ccc(C(=O)NCCN2CCOCC2)cc1)c1cc(OC)c(OC)c(-c2cccs2)c1 [Example 50, 4-[2-(3,4-Dimethoxy-5-thien-2-yl-phenyl)-acryloyl]-N-(2-morpholin-4-yl-ethyl)-benzamide]
< 3000 nM	187 to 190 °C	C=C(C(=O)c1ccc(N2CCCC2)cc1)c1cc(-c2cccs2)ccc1OC [Example 14, 2-(2-Methoxy-5-thien-2-yl-phenyl)-1-(4-pyrrolidin-1-yl-phenyl)-propenone]
< 1000 nM	152 to 154 °C	C=C(C(=O)c1c(OC)ccc(-c2cccs2)c1OC)c1c(Cl)cccc1Cl [Example 42, 2-(2,6-Dichloro-phenyl)-1-(2,6-dimethoxy-3-thien-2-yl-phenyl)-propenone]
< 3000 nM	184 to 186 °C	C=C(C(=O)c1cc(-c2cc3ccccc3s2)c(OC)cc1OC)c1ccc(C(=O)OC)cc1 [Example 12, 4-[1-(5-Benzo[b]thien-2-yl-2,4-dimethoxy-benzoyl)-vinyl]-benzoic acid methyl ester]
< 1000 nM	232 °C (dec.)	C=C(C(=O)c1ccc(C(=O)O)cc1)c1cc(-c2cnc3ccccc3c2)ccc1OC [Example 2, 4-[2-(2-Methoxy-5-quinolin-3-yl-phenyl)-acryloyl]-benzoic acid]
< 3000 nM	142 to 144 °C	C=C(C(=O)c1ccc(F)cc1)c1cc(-c2cc3ccccc3s2)c(OC)cc1OC [Example 51, 2-(5-Benzo[b]thien-2-yl-2,4-dimethoxy-phenyl)-1-(4-fluoro-phenyl)-propenone]
< 3000 nM	186.5 to 188 °C	C=C(C(=O)c1c(C)cccc1C)c1ccc(C(=O)O)cc1-c1cccs1 [Example 33, 4-[1-(2,6-Dimethyl-benzoyl)-vinyl]-3-thien-2-yl-benzoic acid]
< 3000 nM	79 to 94 °C	C=C(C(=O)c1c(OC)ccc(-c2cccs2)c1OC)c1cccc(OC(C)(C)C(=O)O)c1 [Example 44, 2-{3-[1-(2,6-Dimethoxy-3-thien-2-yl-benzoyl)-vinyl]-phenoxy}-2-methyl-propionic acid]
> 10000 nM	206 to 207 °C	C=C(C(=O)c1ccc(C(=O)O)cc1)c1cc(-c2cccs2)ccc1OCC(=O)N1CCOCC1 [Example 60]
< 10000 nM	164 to 166 °C	C=C(C(=O)c1c(OC)ccc(-c2cccs2)c1OC)c1ccc(S(=O)(=O)N(C)CC(=O)O)cc1 [Example 63, ({4-[1-(2,6-Dimethoxy-3-thien-2-yl-benzoyl)-vinyl]-benzenesulfonyl}-methyl-amino)-acetic acid]
< 1000 nM	197 to 198 °C	C=C(C(=O)c1ccc(NS(C)(=O)=O)cc1)c1cc(-c2cccs2)ccc1OC [Example 19, N-{4-[2-(2-Methoxy-5-thien-2-yl-phenyl)-acryloyl]-phenyl}-methane-sulfonamide]
< 1000 nM	88 °C (dec.)	C=C(C(=O)c1c(C)cccc1Cl)c1ccc(C(=O)O)cc1-c1cccs1 [Example 32, 4-[1-(2-Chloro-6-methyl-benzoyl)-vinyl]-3-thien-2-yl-benzoic acid]
< 1000 nM	165 to 168 °C	C=C(C(=O)c1ccc(NC(=O)c2cccn2C)cc1)c1cc(-c2cccs2)ccc1OC [Example 28, 1-Methyl-1H-pyrrole-2-carboxylic acid {4-[2-(2-methoxy-5-thien-2-yl-phenyl)-acryloyl]-phenyl}-amide]
< 3000 nM	163 to 164 °C	C=C(C(=O)c1ccc(C(=O)O)cc1)c1ccc(OC)c(-c2cccs2)c1 [Example 1, 4-[2-(4-Methoxy-3-thien-2-yl-phenyl)-acryloyl]-benzoic acid]
< 1000 nM	155 to 158 °C	C=C(C(=O)c1ccc(NC(=O)C(C)C)cc1)c1cc(-c2cccs2)ccc1OC [Example 21, N-{4-[2-(2-Methoxy-5-thien-2-yl-phenyl)-acryloyl]-phenyl}-isobutyramide]
< 1000 nM	159 to 160 °C	C=C(C(=O)c1cc(OC)c(OC)c(-c2cccs2)c1)c1ccc(C(=O)O)cc1 [Example 16, 4-[1-(3,4-Dimethoxy-5-thien-2-yl-benzoyl)-vinyl]-benzoic acid]
< 1000 nM	144 to 146 °C	C=C(C(=O)c1ccc(C(=O)NC(CO)(CO)CO)cc1)c1cc(-c2cccs2)ccc1OC [Example 10, N-(2-Hydroxy-1,1-bis-hydroxymethyl-ethyl)-4-[2-(2-methoxy-5-thien-2-yl-phenyl)-acryloyl]-benzamide]
< 3000 nM	166 to 168 °C	C=C(C(=O)c1cc(-c2cc3ccccc3s2)c(OC)cc1OC)c1ccc(OC)cc1 [Example 46, 1-(5-Benzo[b]thien-2-yl-2,4-dimethoxy-phenyl)-2-(4-methoxy-phenyl)-propenone]
< 3000 nM	86 to 88 °C	C=C(C(=O)c1cc(-c2cccs2)ccc1OC)c1ccc(C#N)cc1 [Example 53, 4-[1-(2-Methoxy-5-thien-2-yl-benzoyl)-vinyl]-benzonitrile]
< 3000 nM	116 to 121 °C	C=C(C(=O)c1ccc(F)cc1)c1cc(-c2cccs2)ccc1OC [Example 13, 1-(4-Fluoro-phenyl)-2-(2-methoxy-5-thien-2-yl-phenyl)-propenone]
< 1000 nM	126 to 128 °C	C=C(C(=O)c1ccc(C(=O)OC)cc1)c1cc(-c2cccs2)ccc1OC [Example 9, 4-[2-(2-Methoxy-5-thien-2-yl-phenyl)-acryloyl]-benzoic acid methyl ester]

From patent US20060063828A1 (priority 2004, published 2006)
